This is an account of results in US9783505B2, “Substituted diaminopyrimidyl compounds, compositions thereof, and methods of treatment therewith” (Signal Pharmaceuticals, LLC, priority 2013, dated 2017).

The target of the test is T1, His-PKC-theta (Homo sapiens, UniProt Q04759).
T1 construct: His; purchased Invitrogen
Kind of test: PKC-theta Assay (384-well time resolved fluorescence, IMAP TR-FRET). It is filed as biochemical. As to conditions: read-out: Act. Level (IC50 in the PKC-theta Assay). Here is the method: PKC-theta Assay. A 384-well time resolved fluorescence assay was used to monitor PKC-theta activity. The PKC-theta assay was run in the following assay buffer: 50 mM HEPES pH 7.6, 10 mM MgCl2, 1 mM DTT, 0.01% Triton X-100, 0.01% BSA and 0.1 mM EDTA. To initiate the reaction, 200 nM of Fam-labeled S6-derived peptide (Molecular Devices) and 10 μM of ATP were mixed with 142 pM of His-PKC-theta (Invitrogen) for a total assay volume of 25 μL in each well. The assay was incubated at room temperature for 2 hours and terminated using a 60 μL/well mixture of Detection Binding Solution: 70% IMAP Progressive Binding Buffer A, 30% IMAP Progressive Binding Buffer B, 1:600 Progressive Binding Reagent, and 1:400 TR-FRET Tb Donor (Molecular Devices). The assay plates were then incubated overnight at room temperature and read on a Perkin-Elmer Envision Reader.
A general note: Time-resolved FRET reads energy transfer from a long-lived donor to a nearby acceptor.

Like-named read-outs stand apart in the source and are kept apart here.

T1 sequence (Q04759 whole entry): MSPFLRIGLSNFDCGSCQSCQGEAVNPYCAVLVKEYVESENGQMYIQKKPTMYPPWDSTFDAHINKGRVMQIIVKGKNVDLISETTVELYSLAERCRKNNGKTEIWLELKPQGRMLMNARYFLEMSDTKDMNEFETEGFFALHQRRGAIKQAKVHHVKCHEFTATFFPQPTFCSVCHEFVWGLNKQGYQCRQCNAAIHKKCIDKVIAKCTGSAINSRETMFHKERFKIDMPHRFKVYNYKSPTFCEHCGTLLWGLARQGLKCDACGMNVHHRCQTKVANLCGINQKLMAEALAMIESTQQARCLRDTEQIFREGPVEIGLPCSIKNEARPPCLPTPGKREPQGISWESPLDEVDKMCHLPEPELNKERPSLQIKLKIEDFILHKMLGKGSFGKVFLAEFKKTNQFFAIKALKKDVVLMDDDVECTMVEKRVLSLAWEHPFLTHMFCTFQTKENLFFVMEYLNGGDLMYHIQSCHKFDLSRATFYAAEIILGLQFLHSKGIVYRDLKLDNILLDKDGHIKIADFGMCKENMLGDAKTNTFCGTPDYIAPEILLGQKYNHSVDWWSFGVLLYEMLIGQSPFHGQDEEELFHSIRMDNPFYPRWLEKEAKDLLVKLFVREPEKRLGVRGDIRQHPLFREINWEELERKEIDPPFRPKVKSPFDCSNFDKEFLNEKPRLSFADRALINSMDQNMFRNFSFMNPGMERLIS

With `CC1(C)[C@H](N)C[C@H]1Nc1nc(NCCc2cccc(Cl)c2)ncc1C#N` [Cmpd 158], the half-inhibitory concentration (IC50) (Table 2) fell in the range of 800 to 2000 nM.

As to `CC1(C)C[C@H](Nc2nc(NCCc3ccc(F)cc3)ncc2C#N)CC[C@@H]1O` [Cmpd 93], the IC50 (Table 2) is 100 to 800 nM.

As for `CC1(C)[C@H](O)C[C@H]1Nc1nc(NCc2cncnc2OCCC(F)(F)F)ncc1C(F)(F)F` [Cmpd 125], the IC50 is less than 100 nM.

Regarding `Cc1[nH]c2c(F)cc(F)cc2c1CCNc1ncc(C#N)c(N[C@@H]2CC[C@H](O)C(C)(C)C2)n1` [Cmpd 167], the IC50 lay in the range of 100 to 800 nM.

Turning to `N#Cc1cnc(NCc2ccccc2Oc2ccc(F)cc2)nc1N[C@H]1CC[C@@H](O)CC1` [Cmpd 12], the IC50 (Table 2) lay in the range of 800 to 2000 nM.

Consider `N#Cc1ccc(CCNc2ncc(C#N)c(N[C@H]3C[C@@H](C(N)=O)C3)n2)cc1` [Cmpd 192], for which the IC50 (Table 2) is 2000 to 10000 nM.

With `CC(C)(F)c1ncncc1CNc1ncc(C#N)c(N[C@@H]2CC[C@H](O)C(C)(C)C2)n1` [Cmpd 10], the IC50 was less than 100 nM.

As for `CC1(C)[C@@H](O)C[C@H]1Nc1nc(NCCc2cccc(Cl)c2)ncc1C#N` [Cmpd 86], the IC50 (Table 2) was less than 100 nM.

Regarding `N#Cc1cnc(NCc2ccccc2C(F)(F)F)nc1N[C@H]1CC[C@@H](O)CC1` [Cmpd 8], the IC50 (Table 2) is 100 to 800 nM.

Take `CCc1ncncc1CNc1ncc(C#N)c(N[C@H]2C[C@@H](O)C2(C)C)n1` [Cmpd 123]: the IC50 is 100 to 800 nM.

For `CC1(C)[C@@H](O)C[C@H]1Nc1nc(NCCc2ccc(O)cc2)ncc1C#N` [Cmpd 84], the IC50 (Table 2) is 100 to 800 nM.

Take `Cc1ccn(CCNc2ncc(C#N)c(N[C@@H]3CC[C@H](O)C(C)(C)C3)n2)n1` [Cmpd 194]: the IC50 lay within 2000 to 10000 nM.

With `CC1(C)[C@@H](O)C[C@H]1Nc1nc(NCCc2cccc3cccnc23)ncc1C#N` [Cmpd 190], the IC50 lay within 2000 to 10000 nM.

`CC1(C)C[C@@H](Nc2nc(NCC(O)c3ccc(OC(F)F)cc3)ncc2C#N)CC[C@H]1O` (stereo partly drawn) [Cmpd 50]: the IC50 (Table 2) lay within 2000 to 10000 nM.

In the case of `CN(C)c1ccc(CCNc2ncc(C#N)c(N[C@@H]3C[C@H](O)C3(C)C)n2)cc1` [Cmpd 133], for the setting “Table 2”, the IC50 lay in the range of 100 to 800 nM.

Regarding `CC1(C)C[C@H](Nc2nc(NCCc3cccc(Cl)c3C(F)(F)F)ncc2C#N)CC[C@@H]1O` [Cmpd 182], the IC50 (Table 2) was 100 to 800 nM.

`CCOc1cccc(F)c1CNc1ncc(C#N)c(N[C@H]2CC[C@@H](O)CC2)n1` [Cmpd 23]: the IC50 (Table 2) is 2000 to 10000 nM.

Take `COc1cccc2[nH]cc(CCNc3ncc(C#N)c(N[C@@H]4CC[C@H](O)C(C)(C)C4)n3)c12` [Cmpd 175]: the IC50 lay in the range of 100 to 800 nM.

For the compound `Cc1nnnn1-c1ccccc1CNc1ncc(C(F)(F)F)c(NC2CCC(O)C(C)(C)C2)n1` (stereo not drawn) [Cmpd 2], the IC50 (Table 2) was less than 100 nM.

Regarding `COc1ccccc1CCNc1ncc(C#N)c(N[C@@H]2CC[C@H](O)C(C)(C)C2)n1` [Cmpd 30], the IC50 (Table 2) is 100 to 800 nM.

Turning to `COc1cccc2c(CCNc3ncc(C#N)c(N[C@@H]4CC[C@H](O)C(C)(C)C4)n3)c[nH]c12` [Cmpd 177], the IC50 lay in the range of 100 to 800 nM.

Take `O[C@H]1CC[C@@H](Nc2nc(NCc3cncnc3C(F)(F)F)ncc2C(F)(F)F)CC1` [Cmpd 81]: the IC50 was less than 100 nM.

As for `CC1(C)[C@H](CO)C[C@H]1Nc1nc(NCc2cnccc2C(F)(F)F)ncc1C(F)(F)F` [Cmpd 66], the IC50 was less than 100 nM.

Consider `CC(C)(CO)CNc1nc(NCc2cnccc2C(F)(F)F)ncc1C#N` [Cmpd 129], for which the IC50 was 100 to 800 nM.

With `CC1(C)C(O)C[C@@H]1Nc1nc(NCc2cncnc2OCCC(F)(F)F)ncc1C(F)(F)F` (stereo partly drawn) [Cmpd 85], the IC50 was less than 100 nM.

Take `CC1(C)[C@@H](CO)C[C@H]1Nc1nc(NCCc2cccc(Cl)c2)ncc1C#N` [Cmpd 74]: the IC50 (Table 2) is less than 100 nM.

With `N#Cc1cnc(NCc2ccccc2)nc1N[C@H]1CC[C@@H](O)CC1` [Cmpd 28], the IC50 (Table 2) lay within 2000 to 10000 nM.

Regarding `N#Cc1cnc(NCc2ccccc2-c2ccccc2)nc1N[C@H]1CC[C@@H](O)CC1` [Cmpd 10], the IC50 (Table 2) lay in the range of 100 to 800 nM.

Take `CC1(C)C[C@H](Nc2nc(NCCc3n[nH]c4ccccc34)ncc2C#N)CC[C@@H]1O` [Cmpd 176]: the IC50 is 800 to 2000 nM.

For the compound `CC1(C)C[C@H](Nc2nc(NCCc3ccc(CN4CCCC4=O)cc3)ncc2C#N)CC[C@@H]1O` [Cmpd 52], the IC50 (Table 2) was in the range of 100 to 800 nM.

With `CC1(C)C[C@H](Nc2nc(NCCc3ccc(S(N)(=O)=O)c(Cl)c3)ncc2C#N)CC[C@@H]1O` [Cmpd 186], for the setting “Table 2”, the IC50 is less than 100 nM.

Take `CC1(C)C[C@H](Nc2nc(NCCc3ccc(C#N)c(Br)c3)ncc2C#N)CC[C@@H]1O` [Cmpd 146]: under “Table 2”, the IC50 is less than 100 nM.

As for `Cc1ncc(-c2ccc(CCNc3ncc(C#N)c(N[C@@H]4CC[C@H](O)C(C)(C)C4)n3)cc2)s1` [Cmpd 64], where the note is “Table 2”, the IC50 was less than 100 nM.

For `Cc1cccc(Oc2ncncc2CNc2ncc(C#N)c(N[C@H]3CC[C@@](C)(O)CC3)n2)c1` [Cmpd 38], the IC50 was less than 100 nM.

Take `CC1(C)C[C@H](Nc2nc(NCCc3ccco3)ncc2C#N)CC[C@@H]1O` [Cmpd 196]: the IC50 lay within 100 to 800 nM.

As to `CC1(C)[C@@H](C(N)=O)C[C@H]1Nc1nc(NCCc2ccc(C#N)cc2)ncc1C#N` [Cmpd 194], the IC50 (Table 2) was in the range of 100 to 800 nM.

In the case of `Cc1ncc(-c2ccc(CCNc3ncc(C#N)c(N[C@@H]4C[C@H](O)C4(C)C)n3)cc2)s1` [Cmpd 124], the IC50 (Table 2) lay within 100 to 800 nM.

Turning to `CC1(C)[C@H](N)C[C@@H]1Nc1nc(NCCc2cccc(Cl)c2)ncc1C#N` [Cmpd 159], where the note is “Table 2”, the half-inhibitory concentration (IC50) was less than 100 nM.

For the compound `Cc1[nH]c2ccc(C#N)cc2c1CCNc1ncc(C#N)c(N[C@H]2CC[C@@H](O)CC2)n1` [Cmpd 148], the IC50 fell in the range of 2000 to 10000 nM.

On to `CC1(C)C[C@H](Nc2nc(NCCc3ccc(Cl)c(Cl)c3)ncc2C#N)CC[C@@H]1O` [Cmpd 101], for which the IC50 (Table 2) lay within 100 to 800 nM.

Consider `COc1cccc(CCNc2ncc(C#N)c(N[C@@H]3C[C@H](O)C3(C)C)n2)c1OC` [Cmpd 105], for which the IC50 (Table 2) fell in the range of 800 to 2000 nM.

As to `C[C@]1(O)CC[C@@H](Nc2nc(NCc3cnccc3C(F)(F)F)ncc2C(F)(F)F)CC1` [Cmpd 46], the IC50 was less than 100 nM.

`CC1(C)C[C@H](Nc2nc(NCCc3ccc(-n4ccnc4)c(Cl)c3)ncc2C#N)CC[C@@H]1O` [Cmpd 180]: the IC50 (Table 2) was less than 100 nM.

As for `COC1CC(Nc2nc(NCc3cnccc3C(F)(F)F)ncc2C(F)(F)F)C1(C)C` (stereo not drawn) [Cmpd 103], the IC50 lay in the range of 100 to 800 nM.

As for `CC1(C)C(O)C(C)(C)C1Nc1nc(NCc2cnccc2C(F)(F)F)ncc1C#N` (stereo not drawn) [Cmpd 130], the 50% inhibitory concentration (IC50) fell in the range of 100 to 800 nM.

On to `CC1(C)[C@@H](O)C[C@H]1Nc1nc(NCCc2cccc3ccccc23)ncc1C#N` [Cmpd 128], for which, under “Table 2”, the half-maximal inhibitory concentration (IC50) was 100 to 800 nM.

Take `CC1(C)[C@H](CO)C[C@@H]1Nc1nc(NCc2cnccc2C(F)(F)F)ncc1C(F)(F)F` [Cmpd 91]: the IC50 was in the range of 100 to 800 nM.

As to `CC1(C)[C@@H](Nc2nc(NCCc3cccc(Cl)c3)ncc2C#N)C[C@@H]1C(N)=O` [Cmpd 162], the IC50 (Table 2) is 100 to 800 nM.

Consider `Cc1ccc(CCNc2ncc(C#N)c(N[C@@H]3CC[C@H](O)C(C)(C)C3)n2)cc1C` [Cmpd 35], for which, under “Table 2”, the 50% inhibitory concentration (IC50) is less than 100 nM.

Take `N#Cc1cnc(NCCc2cccc(Cl)c2)nc1N[C@H]1C[C@@H](O)C1` [Cmpd 70]: the IC50 (Table 2) fell in the range of 800 to 2000 nM.

On to `CC1(C)[C@@H](O)C[C@H]1Nc1nc(NCC(F)(F)c2ccccc2)ncc1C#N` [Cmpd 43], for which the IC50 (Table 2) lay within 100 to 800 nM.

As for `CC1(C)[C@@H](O)C[C@H]1Nc1nc(NCc2cncnc2OCCC(F)(F)F)ncc1C(F)(F)F` [Cmpd 2], the concentration for half-maximal inhibition (IC50) was less than 100 nM.

Consider `CC1(C)[C@@H](O)C[C@H]1Nc1nc(NCc2cncnc2OCC(F)F)ncc1C(F)(F)F` [Cmpd 7], for which the IC50 is less than 100 nM.

Regarding `N#Cc1cnc(NCCc2c[nH]c3ccc(F)cc23)nc1N[C@H]1CC[C@@H](C(N)=O)CC1` [Cmpd 178], the IC50 was less than 100 nM.

With `CC(C)c1ncncc1CNc1ncc(C#N)c(N[C@@H]2C[C@H](O)C2(C)C)n1` [Cmpd 35], the IC50 is less than 100 nM.

Turning to `N#Cc1cnc(NCc2ccccc2OC(F)(F)F)nc1N[C@H]1CC[C@@H](O)CC1` [Cmpd 17], the IC50 (Table 2) was in the range of 800 to 2000 nM.

In the case of `CCc1ccc2c(c1)C(CCNc1ncc(C#N)c(N[C@@H]3C[C@H](O)C3(C)C)n1)C(=O)N2` (stereo partly drawn) [Cmpd 261], the IC50 was less than 100 nM.

Consider `CC1(C)C[C@H](Nc2nc(NCCc3cccc(Cl)c3F)ncc2C#N)CC[C@@H]1O` [Cmpd 87], for which, for the setting “Table 2”, the IC50 was less than 100 nM.

Take `CC1(C)[C@@H](O)C[C@H]1Nc1nc(NCCc2ccncc2)ncc1C#N` [Cmpd 186]: the IC50 was 800 to 2000 nM.

For the compound `COc1cc(CCNc2ncc(C#N)c(N[C@@H]3C[C@H](O)C3(C)C)n2)ccc1O` [Cmpd 104], for the setting “Table 2”, the IC50 was in the range of 2000 to 10000 nM.

For `N#Cc1ccc2[nH]cc(CCNc3ncc(C#N)c(N[C@H]4CC[C@@H](O)CC4)n3)c2c1` [Cmpd 163], the IC50 lay in the range of 2000 to 10000 nM.

With `CC1(C)C[C@H](Nc2nc(NCCC3C(=O)Nc4ccccc43)ncc2C#N)CC[C@H]1O` (stereo partly drawn) [Cmpd 158], the IC50 lay within 100 to 800 nM.

With `COC1CC(Nc2nc(NCc3cnccc3C(F)(F)F)ncc2C(F)(F)F)C1(C)C` (stereo not drawn) [Cmpd 3], the IC50 was less than 100 nM.

As to `CC1(C)[C@@H](O)C[C@H]1Nc1nc(NCc2cncnc2C(F)(F)F)ncc1C#N` [Cmpd 61], the IC50 was less than 100 nM.

In the case of `CC1(C)[C@@H](O)C[C@H]1Nc1nc(NCCCn2ccnc2)ncc1C#N` [Cmpd 188], the half-maximal inhibitory concentration (IC50) was in the range of 2000 to 10000 nM.

Turning to `CCc1ccc2c(c1)C(CCNc1ncc(C#N)c(N[C@H]3CC[C@@H](C(N)=O)CC3)n1)C(=O)N2` (stereo partly drawn) [Cmpd 180], the IC50 is less than 100 nM.

As to `CC1(C)C[C@H](Nc2nc(NCc3cncnc3C(F)(F)F)ncc2C(F)(F)F)CC[C@@H]1O` [Cmpd 30], the IC50 was less than 100 nM.

Take `CC1(C)[C@@H](O)C[C@H]1Nc1nc(NCCc2ccccn2)ncc1C#N` [Cmpd 187]: the half-inhibitory concentration (IC50) was in the range of 2000 to 10000 nM.

Consider `CC(C)(F)c1ncncc1CNc1ncc(C#N)c(N[C@H]2CC[C@@](C)(O)CC2)n1` [Cmpd 50], for which the IC50 is less than 100 nM.

Usually IC50 stands for the midpoint of a concentration-inhibition curve.
